# Patent US20020072606A1, “Chemokine receptor antagonists” (Warner-Lambert Company, priority 1999, published 2002)
# Structures can show the parent of a compound that is named as a salt.
row,melting point,SMILES
1,203 to 210 °C,"C[C@@]12CC3CC(N)/C(=C/c4ccccc4)CC3CN1CCc1c2[nH]c2ccccc12 (stereo in doubt) (as salt: trifluoroacetic acid salt) [Example 28, 3-Benzylidene-13b-methyl-1,2,3,4,4a,5,7,8,13,13b,14,14a-dodecahydro-indolo[2′,3′: 3,4]pyrido[1,2-b]isoquinolin-2-ylamine]"
2,255 °C (dec.),"CCC[C@@]12CC3CC(=O)CCC3CN1CCc1c2[nH]c2ccccc12 (stereo partly drawn) [Example 6, [2R-(2α,4aα, 13β, 14aβ)]-13b-Propyl-3,4,4a,5,7,8,13,13b,14,14a-decahydro-1H-indolo[2′,3′;3,4]pyrido[1,2-b]isoquinolin-2-one]"
3,125 to 130 °C,"C[C@@]12CC3C[C@H](O)/C(=C/c4ccc(Cl)c(Cl)c4)CC3CN1CCc1c2[nH]c2ccccc12 (stereo partly drawn) [Example 25, [2R-[2α(E),4aα,13bβ, 14aβ]]-3-(3,4-Dichloro-benzylidene)-13b-methyl-1,2,3,4,4a,5,7,8,13,13b,14,14a-dodecahydro-indolo[2′,3′:3,4]pyrido[1,2-b]-isoquinolin-2-ol]"
4,235 °C (dec.),"CCCC[C@@]12CC3C[C@H](O)CCC3CN1CCc1c2[nH]c2ccccc12 (stereo partly drawn) [Example 1, [2R-(2α,4aα,13β,14aβ)]-13b-Butyl-1,2,3,4,4a,5,7,8,13,13b,14,14a-dodecahydro-indolo[2′,3′:3,4]pyrido[1,2-b]isoquinolin-2-ol]"
5,211 to 213 °C,"C=CC[C@@]12CC3C[C@H](O)/C(=C/c4ccccc4)CC3CN1CCc1c2[nH]c2ccccc12 (stereo partly drawn) [Example 10, [2S-(2α,4aα,13β,14aα)]-13b-Allyl-3-benzylidene-1,2,3,4,4a,5,7,8,13,13b,14,14a-dodecahydro-indolo[2′,3′:3,4]pyrido[1,2-b]isoquinolin-2-ol]"
6,228 to 230 °C,"C=CC[C@@]12CC3C[C@H](O)CCC3CN1CCc1c2[nH]c2ccccc12 (stereo partly drawn) [Example 2, [2R-(2α,4aα, 13β,14aβ)]-13b-Allyl-1,2,3,4,4a,5,7,8,13,13b,14,14a-dodecahydro-indolo[2′,3′:3,4]pyrido[1,2-b]isoquinolin-2-ol]"
7,222 to 225 °C,"CCCC[C@@]12CC3C[C@H](O)/C(=C/c4ccccc4)CC3CN1CCc1c2[nH]c2ccccc12 (stereo partly drawn) [Example 12, [2S-(2α,4aα,13β,14aβ)]-3-Benzylidine-13b-butyl-1,2,3,4,4a,5,7,8,13,13b,14,14a-dodecahydro-1-indolo[2′,3′:3,4]pyrido[1,2-b]-isoquinolin-2-ol]"
8,142 to 145 °C,"C[C@@]12CC3CC(=NO)/C(=C/c4ccccc4)CC3CN1CCc1c2[nH]c2ccccc12 (stereo partly drawn) [Example 27, [4aR-[(E),4aα,13bβ,14aβ]]-3-Benzylidene-13b-methyl-3,4,4a,5,7,8,13,13b,14,14a-decahydro-1H-indolo[2′,3′:3,4]pyrido[1 ,2-b]-isoquinolin-2-one oxime]"
9,140 to 145 °C,"C[C@@]12CC3CC(=O)/C(=C/c4ccc(Cl)c(Cl)c4)CC3CN1CCc1c2[nH]c2ccccc12 (stereo partly drawn) [Example 21, [4aR-[(E),4aα,13bβ, 14aβ]]-3-(3,4-Dichloro-benzylidene)-13b-methyl-3,4,4a,5,7,8,13,13b,14,14a-decahydro-1H-indolo[2′,3′:3,4]pyrido[1,2-b]-isoquinolin-2-one]"
10,140 to 142 °C,COc1cccc(/C=C2\CC3CN4CCc5c([nH]c6ccccc56)[C@]4(C)CC3C[C@@H]2O)c1 (stereo partly drawn) [Example 23]
11,120 to 125 °C,"COc1ccc(/C=C2\CC3CN4CCc5c([nH]c6ccccc56)[C@]4(C)CC3CC2=O)cc1OC (stereo partly drawn) [Example 18, [4aR-[(E),4aα, 13bβ, 14aβ]]-3-(3,4-Dimethoxy-benzylidene)-13b-methyl-3,4,4a,5,7,8,13,13b,14,14a-decahydro-1H-indolo[2′,3′:3,4]pyrido[1,2-b]-isoquinolin-2-one]"
12,110 to 120 °C,"COc1cc(/C=C2\CC3CN4CCc5c([nH]c6ccccc56)[C@]4(C)CC3CC2=O)cc(OC)c1 (stereo partly drawn) [Example 20, [4aR-[(E),4aα,13bβ, 14aβ]]-3-(3,5-Dimethoxy-benzylidene)-13b-methyl-3,4,4a,5,7,8,13,13b,14,14a-decahydro-1H-indolo[2′,3′:3,4]pyrido[1,2-b]-isoquinolin-2-one]"
13,128 to 132 °C,"COc1cc(/C=C2\CC3CN4CCc5c([nH]c6ccccc56)[C@]4(C)CC3C[C@@H]2O)cc(OC)c1 (stereo partly drawn) [Example 24, [2R-[2α(E),4aα,13bβ,14aβ]]-3-(3,5-Dimethoxy-benzylidene)-13b-methyl-1,2,3,4,4a,5,7,8,13,13b,14,14a-dodecahydro-indolo[2′,3′:3,4]pyrido[1,2-b]-isoquinolin-2-ol]"
14,125 to 130 °C,"COc1cccc(/C=C2\CC3CN4CCc5c([nH]c6ccccc56)[C@]4(C)CC3CC2=O)c1 (stereo partly drawn) [Example 19, [4aR-[(E),4aα, 13bβ,14aβ]]3-(3-Methoxy-benzylidene)-13b-methyl-3,4,4a, 5,7,8,13,13b,14,14a-decahydro-1H-indolo[2′,3′:3,4]pyrido[1,2-b]-isoquinolin-2-one]"
15,224 to 226 °C,"CCC[C@@]12CC3C[C@H](O)/C(=C/c4ccccc4)CC3CN1CCc1c2[nH]c2ccccc12 (stereo partly drawn) [Example 11, [2S-(2α,4aα,13β, 14aβ)]-3-Benzylidine-13b-propyl-1,2,3,4,4a,5,7,8,13,13b,14,14a-dodecahydro-indolo[2′,3′:3,4]pyrido[1,2-b]-isoquinolin-2-ol]"
16,118 to 121 °C,"COc1ccc(/C=C2\CC3CN4CCc5c([nH]c6ccccc56)[C@]4(C)CC3C[C@@H]2O)cc1OC (stereo partly drawn) [Example 22, [2R-[2α(E),4aα, 13bβ, 14aβ]]-3-(3,4-Dimethoxy-benzylidene)-13b-methyl-1,2,3,4,4a,5,7,8,13,13b,14,14a-dodecahydro-indolo[2′,3′:3,4]pyrido[1,2-b]-isoquinolin-2-ol]"
17,220 to 223 °C,"C=CC[C@@]12CC3CC(=O)CCC3CN1CCc1c2[nH]c2ccccc12 (stereo partly drawn) [Example 5, [2R-(2α,4aα,13β,14aβ)]-13b-Allyl-3,4,4a,5,7,8,13,13b,14,14a-decahydro-1H-indolo[2′,3′:3,4]pyrido[1,2-b]isoquinolin-2-one]"
18,195 °C (dec.),"CCC[C@@]12CC3C[C@H](O)CCC3CN1CCc1c2[nH]c2ccccc12 (stereo partly drawn) [Example 3, [2R-(2α,4aα,13β,14aβ)]-13b-Propyl-1,2,3,4,4a,5,7,8,13,13b,14,14a-dodecahydro-indolo[2′,3′:3,4]pyrido[1,2-b]isoquinolin-2-ol]"
